Data as given in US20110098492A1, “CLEANING COMPOSITIONS CONTAINING MID-RANGE ALKOXYLATES” (priority 2008, published 2011).

Key:
[1] = Cleaning of cross-linked petroleum grease (1-octadecene soil); details: for Arbitrary Gray Value: 1% by weight in water, cross-linked 1-octadecene soil
Excerpt: The same procedure used above for cross-linked triglycerides was used, except that 1-octadecene was used instead of Canola Oil.

[2] = Pour point test (ASTM D97); format: physicochemical
Experimental: C) Pour Point Test: This test is carried out according to the protocol of ASTM Test D97.

[3] = background statement on commercial surfactants; cited from earlier work
[4] = Cleaning of cross-linked triglycerides (Gardner scrubber, soiled vinyl tile); design: key to Arbitrary Gray Value: mean gray value of tile image (ImageJ); details: 120 back-and-forth strokes, higher = better cleaning
Experimental: Test panels coated with mixtures of triglycerides and cross-linked triglycerides were prepared and evaluated using the following procedure. Cobalt Naphthenate was used as a catalyst to accelerate the oxidation of vegetable oil to give a hard varnish. Carbon black is added to the varnish to enable easy visual comparison of the ability to clean the cross-linked triglyceride from the surface.
Substrate Panels: White Vinyl Floor Tile: Tarket Corporation Azrock™ VS304-3 (6913) cut to 4¼×4¼ inch (to fit the Gardner Linear Motion Scrubber).
Soil Formulation: 100 grams Canola Oil (Food Grade, 100%, Kroger Co. Cincinnati, Ohio 45202); 2 grams Acetylene Carbon Black (Cat #39724, Alfa Aesar; Surface area=74 sq m/g); 20 grams drying agent: Cobalt Naphthenate Solution (Aldrich Cat #54,457-4, CAS #61789-51-3) (Comes as a 6% solution in petroleum solvent); Oven: Convection oven set at 160° F.
Scrubbing Tester: Gardco washability & Wear Tester; Linear Motion Test Equipment; Model D12-V Cat #WA-2164 (Paul N. Gardner Company, Inc. 316 N.E. First Street, Pompano, Beach, Fla. 33060.
Sponges: “Do-It” Cellulose Sponge, 1⅝ in thick, cut to 3″×4″. Manufactured by Bloch/New England for HWI, Fort Wayne, Ind. 46801;
Paint Brushes: Economy Chip Brush 1 Inch. www.lgsourcing.com Model #0106; Item #103407 obtained from Lowes, Inc. L. G. Sourcing, Inc. P.O. Box 1535 North Wilkseboro, N.C. 28659
Reflectance Meter: HunterLab ColorQuest XE
Prepare a stock solution by mixing 98 grams of canola oil (food grade) with 2.0 g acetylene-based carbon black (Cat #39724, Alfa Aesar; Surface area=74 sq m/g). Mix with a disperser at 2000 rpm for 15 min. (We used a Caframo Model BDC 3030 with a 0.50 dispersing blade).
Add 20.0 grams Cobalt Naphthenate Solution and mix well (by hand, using a glass stir rod).
Place 1.6 grams soil per 4×4 inch tile.
Paint to a thin film using a clean 1-inch economy brush. Use several strokes to get to an even coating. Use a clean, dry brush for each application. (After the application, each brush can be cleaned with acetone, dried, and then re-used).
Place in a convection oven set at 160 F for 16 hours. We place the panels in an oven at 4:00 p.m, and then remove the panels at 8:00 a.m. the next morning. Let the panels cool for 1 hour.
Use the panels within 10 days
Place a panel in the Gardner Scrubber
[…] (We use 5.0 grams surfactant diluted to 500 mL water).
Prepare a sponge by rinsing several times in cold tap water. Completely squeeze out the sponge by hand.
After each test, rinse out the sponge 15-20 times (by repeated sorption and squeezing) until there is no noticeable surfactant solution left (usually indicated by a lack of foam).
Pour 500 mL of surfactant solution into a beaker
Place the sponge into the beaker—allowing it to soak up as much surfactant as possible.
Place the sponge into the Gardner Scrubber.
Pour the remaining liquid (approx 400 mL) over the test panel in the scrubber. There should be enough liquid to just cover the test panel.
Program the scrubber to perform 120 back-and-forth strokes (for a total of 240 linear strokes). We define each back-and-forth stroke as “1 stroke”
Remove the panel rinse with tap water
Clean the Gardner scrubber by rinsing with tap water.
Clean the sponge by squeezing it out under tap water 20-30 times until clean.
Remove excess water from the sponge by squeezing as much liquid out as possible.
After the panel is dry, either take pictures (for visual comparison of cleaning) or measure the reflectance using the Xyy mode of a Hunter Colorimeter. Alternatively, the mean gray value can be obtained by taking a picture of the tiles and processing computer image with ImageJ™ software, which is distributed freely by the National Institute of Health (nih.gov).

[5] = Gel range in water at 23 C; format: physicochemical; design: key: L = Liquid; G = Gel; TL = Thick Liquid
Experimental: One way the industry expresses a tendency of a surfactant to cause gels is a “gel range.” A typical gel range describes a percentage of samples that form gels, out of a number of samples, each having increasing surfactant concentration. […] A sample forms a gel when it is non-pourable for at least five seconds at 23° centigrade (° C.) when its container is inverted 180° so the container's open spout or mouth faces down. For many applications, a surfactant ideally has no gel range.
D) Gel range: Ten surfactant solutions are made using 0%, 10%, 20%, 30%, 40%, 50%, 60%, 70%, 80%, 90% water. […] The test is run at 23 C.

[6] = Formula stability with LAS, sodium citrate and water; format: physicochemical; design: key to Formula stability: S = Stable; U = Unstable
Excerpt: When mixed with dodecyl benzene sulfonic acid (sodium salt), and sodium citrate in water, the surfactants of the present invention show enhanced formula stability relative to conventional surfactants.

[7] = Ross-Miles foam height test (ASTM D1173); format: physicochemical; details: for Ross Miles Foam Height, millimeters, Initial: Initial (0 sec)
Experimental: A) Ross-Miles Foam Height Test: This test is carried out according to the protocol of ASTM […].

Cloud point = format: physicochemical
Desmondesmus subspicatus = test: Fresh water algal growth inhibition test (OECD 201); format: cell-based; details: growth rate
Excerpt: Organization for Economic Cooperation and Development (OECD): OECD Guidelines for the Testing of Chemicals, “Freshwater Alga and Cyanobacteria, Growth Inhibition Test”, Procedure 201, adopted 23 Mar. 2006; European Economic Community (EEC): […] OECD Guidelines for the Testing of Chemicals, “Freshwater Alga and Cyanobacteria, Growth Inhibition Test”, Procedure 201, adopted 23 Mar. 2006; European Economic Community (EEC): […]

Daphna magna = test: 48-hour acute toxicity to Daphnia; format: in vivo
Excerpt: The study procedures and test methods were based on the recommendations of the following guidelines: […]

Sicklepod = test: Greenhouse herbicide adjuvant efficacy with glyphosate; format: in vivo; details: adjuvant 0.25% v/v in spray, visual injury at 18 DAA
Experimental: Efficacy of Examples 7 and 8 as adjuvants in formulated herbicides is compared to commercially available herbicide packages. Greenhouse field testing is completed. A 480 g ae/L (acid equivalent per liter) formulation of glyphosate isopropylamine with no adjuvants is added to spray vials. These aliquots are diluted to a final volume of 60 ml with tap water, and appropriate amounts of adjuvants are added to the spray solution. The Examples 7 and 8 series are tested at 0.25% v/v in the final spray solution. Treatment rates are: 200, 400, and 600 g ae/ha (“ha” means hectare) and each treatment is replicated three times. Treatments are applied with a tracksprayer. The sprayer utilizes an 8002E spray nozzle, spray pressure of 262 kPa pressure and speed of 2.2 mph to deliver 140 L/Ha. The nozzle height is 46 cm above the pots. Percent visual injury assessments are made at 18 DAA (days after application) on a scale of 0 to 100% as compared to the untreated control plants (where 0 is equal to no injury and 100 is equal to complete death of the plant). Results are shown in Table 10 as % Control of Sicklepod with Glyphosate compared to commercial herbicides.

[8] = Surface tension and critical micelle concentration (Wilhelmy plate); format: physicochemical
Experimental: B) Surface Tension and Critical Micelle Concentration (CMC) Measurement. For this test the surface tension of a surfactant-water solution is measured while incrementally adding the surfactant to de-ionized water. Results are measured in terms of dyne/centimeters using a Wilhelmy plate. Results are recorded versus surfactant concentration. The Critical Micelle Concentration is the point at which an increase in surfactant concentration no longer results in a change in surface tension.

Substance | Arbitrary Gray Value [1] | Pour Point [2] [° F.] | Arbitrary Gray Value ([4]; 1% by weight in water) | Gel Range, Percent Surfactant in Water at 23 C. ([5]; 10% surfactant in water) | Gel Range, Percent Surfactant in Water at 23 C. ([5]; 20% surfactant in water) | Gel Range, Percent Surfactant in Water at 23 C. ([5]; 30% surfactant in water) | Gel Range, Percent Surfactant in Water at 23 C. ([5]; 40% surfactant in water) | Gel Range, Percent Surfactant in Water at 23 C. ([5]; 50% surfactant in water) | Gel Range, Percent Surfactant in Water at 23 C. ([5]; 60% surfactant in water) | Gel Range, Percent Surfactant in Water at 23 C. ([5]; 70% surfactant in water) | Gel Range, Percent Surfactant in Water at 23 C. ([5]; 80% surfactant in water) | Gel Range, Percent Surfactant in Water at 23 C. ([5]; 90% surfactant in water) | Ross Miles Foam Height, millimeters, 5 Minutes [7] [millimeters] | Ross Miles Foam Height, millimeters, Initial [7] [millimeters] | Fresh Water algal growth inhibition test with Desmondesmus subspicatus ErC50/0-3 (Desmondesmus subspicatus) [mg/L] | 48-hour Acute Toxicity to Daphna magna (EC50-50 hour) (Daphna magna) [µg/mL] | further results
nonylphenoxy (polyoxyethylene-9) [NP-9, reference compound] | 95 | 30 | 177 | L | L | L | L | L | G | G | G | L | 35 | 145 |  |  | gel formation / gel range when mixed with water (in words) [3]: forms resilient, slow-dissolving gels; Arbitrary Gray Value ([4]; 0.5% by weight in water): 108; Formula stability ([6]; 15% LAS/0% Na Cit in water): U; Formula stability ([6]; 15% LAS/1% Na Cit in water): U; Formula stability ([6]; 15% LAS/2% Na Cit in water): U; Formula stability ([6]; 15% LAS/4% Na Cit in water): U
C9(BO)1(EO)7 [Example 9] |  |  | 121 |  |  |  |  |  |  |  |  |  |  |  | 21 | 6.2 | cloud point (Cloud point): 53.9 C
2EH(PO)5(EO)9 [Example 8] |  |  | 128 |  |  |  |  |  |  |  |  |  |  |  | 97.7 | >100 | % Control of Sicklepod with Glyphosate (Sicklepod; 200 G/ha glyphosate): 31.7%; % Control of Sicklepod with Glyphosate (Sicklepod; 400 G/ha glyphosate): 73.3%; % Control of Sicklepod with Glyphosate (Sicklepod; 600 G/ha glyphosate): 75.0%
2EH(PO)5.5(EO)8 [Example 3] | 136 | 44 |  | L | L | L | L | L | L | L | TL | L | 0 | 45 |  |  | Surface Tension ([8]; 0.1 wt % in water): 31 dyne/centimeters; Critical Micelle Concentration ([8]; in de-ionized water): 1750 ppm; cleaning of cross-linked 1-octadecene / mineral oil (in words) ([1]; compared with Tergitol NP-9): equivalent to Tergitol NP-9
